The source of these data is US5843969A, “Protecting agent for organ or tissue” (Teijin Limited, priority 1995, dated 1998).

The test system of one data set is RBL-1 cells. The experiment in a line: leukotriene B4 production in cultured RBL-1 cells (A23187 stimulated, enzyme immunoassay). Format: cell-based. How it is done:
RBL-1 cells (Dainippon Pharmaceutical Co.) were cultured in a Dulbecco's Modified Eagle's Medium containing fetal bovine serum in an amount of 10%. The cultured cells were adjusted to 5×10^6 cells/ml. […] After incubated at 37° C. for 5 min, this was immersed into ice and kept for 10 min. Subsequently, 2×10^-5 mol of A23187, Ca-ionophore, was added to the chilled cell suspension to make the final concentration of […], and the cell suspension was incubated again at 37° C. for 15 min. Further, the suspension was held in ice for 10 min. The suspension was subjected to centrifugation at 3000 rpm for 10 min and the cells were removed. Leukotriene B4 (LTB4) level in the supernatant was measured by enzyme immunoassay. […] A significant difference test against the control group was carried out using Bonferroni's test of a multiple comparison.

Data set [1] relates to DNFB-sensitized mice. Description: survival rate in DNFB-sensitized mice (allergic dermatitis model). Format: in vivo, BALB/c mouse. The conditions noted are these: 3, 10, 30 and 100 mg/kg/day oral; up to 6th day after final sensitization (FIGS. 4A and 4B). How it is done:
(§1) Therefore, the presence of such side effects was examined on the active component of the agent of the present invention by using a mouse allergic dermatitis model.
(§2) Hair was removed from the abdomen to the breast of a BALB/c mouse (male, 8 weeks of age) with hair clippers and a shaver. A 0.5% dinitro-fluorobenzene (DNFB) ethanol solution (100 μl head/day) was applied on the hair-removed part one day and two days after the removal of hair to establish sensitization. 2-(3-Cyano-4-isobutyloxyphenyl)-4-methyl-5-thiazolecarboxylic acid, the active component of the present invention, and allopurinol are each suspended in a 0.5% methylcellulose aqueous solution. Each suspension (3, 10, 30 and 100 mg/kg/10 ml/day) was orally administered to an animal at the same time of each DNFB sensitization. […]
(§3) The variations with time of the survival rate and the body weights of the mice administered with the agents were followed up to the 6th day after the final sensitization and recorded. […] The ear thicknesses were measured with a dial thickness gauge (Ozaki Seisakusho, G-1A) before the elicitation, and 24 hr and 48 hr after the elicitation.
(§4) The variations of the body weights and the ear thicknesses were expressed as the mean ± standard deviation for each group. […]

Data set [2] relates to DNFB-sensitized mice. The experiment in a line: body weight in DNFB-sensitized mice (allergic dermatitis model). In kind it is in vivo, BALB/c mouse. The note with it: survived animals. The procedure: as §1
Hair was removed from the abdomen to the breast of a BALB/c mouse (male, 8 weeks of age) with hair clippers and a shaver. A 0.5% dinitro-fluorobenzene (DNFB) ethanol solution (100 μl head/day) was applied on the hair-removed part one day and two days after the removal of hair to establish sensitization. 2-(3-Cyano-4-isobutyloxyphenyl)-4-methyl-5-thiazolecarboxylic acid, the active component of the present invention, and allopurinol are each suspended in a 0.5% methylcellulose aqueous solution. Each suspension (3, 10, 30 and 100 mg/kg/10 ml/day) was orally administered to an animal at the same time of each DNFB sensitization. The number of animals is 8 for each of a 3- and a 10-mg/kg/10 ml/day group, and 10 for each of a 30- and a 100-mg/kg/10 ml/day group in each of the active component and the allopurinol. As the control group, 10 ml/kg of 0.5% methylcellulose aqueous solution, the solvent for the active component and allopurinol, was administered to each of 8 sensitized animals.
The variations with time of the survival rate and the body weights of the mice administered with the agents were followed up to the 6th day after the final sensitization and recorded. For survived sensitized animals, a 0.3% DNFB acetone-olive oil (4:1) mixed solution (10 μl on each of the obverse and the reverse side of an ear) was applied on one ear to elicit an immune reaction and an acetone-olive oil (4:1) mixed solution (10 μl on each of the obverse and the reverse side of an ear) was applied on the other ear on the sixth day after the final sensitization. The ear thicknesses were measured with a dial thickness gauge (Ozaki Seisakusho, G-1A) before the elicitation, and 24 hr and 48 hr after the elicitation.
as §4

The subject of data set [3] is ischemia-reperfusion injury model of kidney. The experiment in a line: renal ischemia-reperfusion injury model in rats, serum BUN level. The conditions noted are these: 50 mg/kg oral 60 min prior to 60-min ischemia; 24-hour reperfusion; compared with control group (FIG. 2). In kind it is in vivo, SD rat. The procedure: (§5) An ischemia-reperfusion injury model of kidney for studying effect on the ischemia-reperfusion injury was prepared with a rat as shown below, and the effect of the administration of the active component of the agent of the present invention was studied by using the model animal.
(§6) The abdomen of an SD rat (male, 6 weeks of age) was opened under anesthesia with sodium pentobarbital, the separated left and right renal arteries were clamped with arterial clips to block the blood flow completely, and the kidneys were brought into an ischemic state. After 60-minute ischemia, the artery clamps were released, and blood flow was restarted to bring the kidneys to a reperfused state. After the suture of the opened abdomen, the animal was returned to a cage and allowed to have free access to food and water. […]
(§7) Serum was separated from the obtained blood sample by centrifugation. Blood urea nitrogen (BUN) level and serum creatinine (Cre) level, a parameter for kidney function injury, were determined on the serum using an automated analyzer (Hitachi 7070) by an urease-indophenol method and Jaffe method, respectively.
(§8) 2-(3-Cyano-4-isobutyloxyphenyl)-4-methyl-5-thiazolecarboxylic acid, the active component, was suspended in a 0.5% methylcellulose aqueous solution. […] The results were each expressed as the mean ± standard deviation. […]

The next data set relates to rats. The experiment in a line: acute toxicity test, single oral administration in rats. Format: in vivo, rat. The conditions noted are these: single oral administration up to 300 mg/kg. The procedure:
Further, for the safety evaluation of the agent of the present invention, an acute toxicity test is carried out with rats in terms of 2-(3-cyano-4-isobutyloxyphenyl)-4-methyl-5-thiazolecarboxylic acid as the active component.

Data set [4] concerns ischemia-reperfusion injury model of kidney. Description: renal ischemia-reperfusion injury model in rats, serum creatinine (Cre) level. In kind it is in vivo, SD rat. The note with it: 50 mg/kg oral 60 min prior to 60-min ischemia; 24-hour reperfusion; mean ± standard deviation; control 3.6±0.4, sham 0.4±0.0; p<0.05 vs control. The procedure: as §5, §6, §7, §8
For data set [5], the system named is DNFB-sensitized mice. Description: ear thickness after elicitation of immune reaction in DNFB-sensitized mice. In kind it is in vivo, BALB/c mouse. How it is done: as §1, §2, §3, §4
For data set [6] the following is noted: clinical application; The Journal of Medicine 1984; The Annals of Pharmacotherapy 1993; cited from earlier work.

As for `Cc1nc(-c2ccc(OCC(C)C)c(C#N)c2)sc1C(=O)O` [2-(3-cyano-4-isobutyloxyphenyl)-4-methyl-5-thiazolecarboxylic acid], the LTB4 production entry in the data set on RBL-1 cells (1×10^-8 mol (final concentration of 10 μM), p<0.001 vs control (FIG. 3)) was “suppresses the production of LTB4 significantly”. Moreover, the survival rate result in the data set on DNFB-sensitized mice [1] is on record as “all animals were survived, excluding one animal of the 100 mg/kg/day group”. In addition, the body weight change result with DNFB-sensitized mice [2] (3, 10, 30 and 100 mg/kg/day oral, up to 6th day after final sensitization (FIG. 5A)) was “did not produce a significant change on the body weights of the animals”. Moreover, the “serum BUN level” value in data set [3] is reported as “exhibited a tendency to suppress the increase of the serum BUN”. The death of rats result in the data set on rats is given as “None of rats died”. Moreover, the “serum Cre level” value in data set [4] turned out to be 2.3 ± 1.1 mg/dL. Also, in the data set on DNFB-sensitized mice [5] (3, 10, 30 and 100 mg/kg/day oral, 24 hr and 48 hr after elicitation (FIG. 6)), the “increase of the ear thickness” value was “none of the effect in terms of the increase of the ear thicknesses was observed”.
Take `Oc1ncnc2[nH]ncc12` [allopurinol, reference compound]: the LTB4 production entry in the data set with RBL-1 cells (up to 1×10^-8 mol (final concentration of up to 10 μM) (FIG. 3)) is listed as “had no effect on the production”. Further, the survival rate entry in the data set on DNFB-sensitized mice [1] is “survival rate decreased dose-dependently with time from a low dose level”. Further, the side effects entry in data set [6] was “side effects including an allergy reaction during clinical application and occasionally the side effect is so severe that the patient is brought to death”. In addition, the body weight change entry is “decreased the body weights of the animals significantly” in the data set with DNFB-sensitized mice [2] (30 mg/kg oral, p<0.01 vs control (FIG. 5B)) and “decreased the body weights of the animals significantly” in the data set on DNFB-sensitized mice [2] (100 mg/kg oral, p<0.05 vs control (FIG. 5B)). Besides, the “increase of the ear thickness and allergy reaction” value in the data set with DNFB-sensitized mice [5] (30 mg/kg oral, after elicitation, p<0.05 vs control (FIG. 6)) is “stimulated the increase of the ear thicknesses, and the allergy reaction significantly”.
